In patent publication US12358915B2, “METTL3 inhibitory compounds” (STORM THERAPEUTICS LTD., priority 2019, dated 2025):
Like-named read-outs stand apart in the source and are kept apart here.

Assays:
MOLM-13 cells = test: MOLM13 CTG - analysis of cell proliferation (Cell Titre Glo); format: cell-based; conditions: Homo sapiens, geometric mean, read-out: CTG MOLM13 cells IC50 GEOMEAN
Method: MOLM-13 or MOLM-14 cells were plated, in suspension, in 24 well tissue culture plates at final concentration of 200,000/ml, with or without 50 ng/ml IFNγ. […] Cells were incubated for 4 days at 37° C. at which point 600 μl of cell suspension was removed for Mass spectrometry analysis of m6A. 600 μl of fresh media containing the appropriate concentration of METTL3 inhibitor/IFNγ was added to remaining cell suspensions. Cells where then cultured for a further 7 days, cell suspension was sampled for analysis of proliferation and Cell surface markers periodically.
At regular time points (4, 5, 6 &7) days cells were mixed to maintain a homogenous cell suspension. 25 μl of this cell suspension was removed and added to a white 384 well plate, 25 μl of Cell Titre Glo reagent (Promega) was added, and incubated for 10 mins at room temperature before measurement of luminescence intensity, as per the manufacturers instructions.

METTL3/14 = target: T1, METTL3/14 (Homo sapiens, UniProt Q86U44); test: METTL3/14 methyltransferase assay (METTL3_14 RFMS, RapidFire mass spectrometry); format: biochemical; conditions: read-out: METTL3_14 RFMS IC50;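 also: recombinant His-tagged METTL3 with FLAG-tagged METTL14 from baculovirus, SAH product quantified by mass spectrometry against isotope-labelled internal standards, 60 min at room temperature, scaled between no-RNA and DMSO-only wells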
T1 construct: The enzyme used was full-length his-tagged METTL3; His; made in house

[1] = 5 nM METTL3/14, 0.2 μM RNA substrate, 0.5 μM SAM, lower limit of the assay IC50=5 nM, Compounds 63-265
[2] = 5 nM METTL3/14, 0.2 μM RNA substrate, 0.5 μM SAM, lower limit of the assay IC50=5 nM, Compounds 266-351

T1 sequence (Q86U44 whole entry): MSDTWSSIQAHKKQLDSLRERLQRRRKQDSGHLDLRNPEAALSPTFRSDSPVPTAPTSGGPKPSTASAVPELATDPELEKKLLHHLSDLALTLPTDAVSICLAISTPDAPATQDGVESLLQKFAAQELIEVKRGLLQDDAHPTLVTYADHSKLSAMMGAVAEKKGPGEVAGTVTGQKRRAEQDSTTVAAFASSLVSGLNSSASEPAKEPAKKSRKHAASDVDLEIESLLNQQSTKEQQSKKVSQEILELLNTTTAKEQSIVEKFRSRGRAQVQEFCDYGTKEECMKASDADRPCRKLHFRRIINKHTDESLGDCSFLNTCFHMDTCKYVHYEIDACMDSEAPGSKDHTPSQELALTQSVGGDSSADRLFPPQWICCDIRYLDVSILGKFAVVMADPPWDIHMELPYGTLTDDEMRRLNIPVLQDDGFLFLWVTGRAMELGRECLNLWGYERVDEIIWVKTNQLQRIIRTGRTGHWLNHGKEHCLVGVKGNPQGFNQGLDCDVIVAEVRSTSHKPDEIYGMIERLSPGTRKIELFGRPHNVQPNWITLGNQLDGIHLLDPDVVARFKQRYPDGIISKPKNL
T1 sequence (Q9HCE5 whole entry partner): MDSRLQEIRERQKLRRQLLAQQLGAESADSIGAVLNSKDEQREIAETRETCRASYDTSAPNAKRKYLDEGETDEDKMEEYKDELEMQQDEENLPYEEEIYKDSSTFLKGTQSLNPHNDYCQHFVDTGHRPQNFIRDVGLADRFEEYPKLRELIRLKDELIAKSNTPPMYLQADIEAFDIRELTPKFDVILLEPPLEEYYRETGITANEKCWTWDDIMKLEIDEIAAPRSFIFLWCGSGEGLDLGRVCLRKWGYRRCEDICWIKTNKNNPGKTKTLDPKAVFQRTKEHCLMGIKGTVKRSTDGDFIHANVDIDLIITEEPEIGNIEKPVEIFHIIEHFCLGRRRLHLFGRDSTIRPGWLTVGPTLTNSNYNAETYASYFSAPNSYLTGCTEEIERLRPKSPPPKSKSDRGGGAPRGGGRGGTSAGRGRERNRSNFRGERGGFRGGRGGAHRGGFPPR

IC50 (MOLM-13 cells) | IC50 (METTL3/14; [1]) | IC50 (METTL3/14; [2]) | IC50 (METTL3/14) | IC50 (METTL3/14; 5 nM METTL3/14, 0.2 μM RNA substrate, 0.5 μM SAM, lower limit of the assay IC50=5 nM, Compounds 1-62) | SMILES
11400 nM | 19.3 nM | – | – | – | O=C(NCc1cn2cc(CNCC3CCC(F)(F)C3)ccc2n1)c1cc(=O)n2ccccc2n1 (centres unmarked) [Compound 211, N-{[6-({[(3,3-difluorocyclopentyl)methyl]amino}methyl)imidazo [1,2-a]pyridin-2-yl]methyl}-4-oxo-4H-pyrido[1,2-a]pyrimidine-2-carboxamide]
8740 nM | 32 nM | – | – | – | CC(NCc1ccc2nc(CNC(=O)c3cc(=O)n4ccccc4n3)cn2c1)C1CCCCC1 (centres unmarked) [Compound 203, N-[(6-{[(1-cyclohexylethyl)amino]methyl}imidazo[1,2-a]pyridin-2-yl)methyl]-4-oxo-4H-pyrido [1,2-a]pyrimidine-2-carboxamide]
6800 nM | 13.7 nM | – | – | – | O=C(NCc1cn2cc(CNCCC3CC3)ccc2n1)c1cc(=O)n2ccccc2n1 [Compound 103, N-[(6-{[(2-cyclopropylethyl)amino]methyl}imidazo[1,2-a]pyridin-2-yl)methyl]-4-oxo-4H-pyrido[1,2-a]pyrimidine-2-carboxamide]
≥ 30000 nM | – | 27.6 nM | – | – | O=C(NCc1cn2cc(CNCC3CC4(CC4)C3)ccc2n1)c1cc(=O)n2ccccc2n1 [Compound 278, 4-oxo-N-[[6-[(spiro[2.3]hexan-5-ylmethylamino)methyl]imidazo[1,2-a]pyridin-2-yl]methyl]pyrido[1,2-a]pyrimidine-2-carboxamide]
≥ 30000 nM | 79.8 nM | – | – | – | O=C(NCc1cn2cc(CNC3CCC3)ccc2n1)c1cc(=O)n2ccccc2n1 [Compound 126, N-({6-[(cyclobutylamino)methyl]imidazo [1,2-a]pyridin-2-yl}methyl)-4-oxo-4H-pyrido [1,2-a]pyrimidine-2-carboxamide]
7340 nM | 15.8 nM | – | – | – | O=C(NCc1cn2cc(CNCC3CCC3F)ccc2n1)c1cc(=O)n2ccccc2n1 (centres unmarked) [Compound 214, N-{[6-({[(2-fluorocyclobutyl)methyl]amino}methyl)imidazo [1,2-a]pyridin-2-yl]methyl}-4-oxo-4H-pyrido [1,2-a]pyrimidine-2-carboxamide]
4720 nM | – | 12.8 nM | – | – | CC[C@H](C)CNCc1ccc2nc(CNC(=O)c3cc(=O)n4ccccc4n3)cn2c1 [Compound 293, N-[[6-[[[(2S)-2-methylbutyl]amino]methyl]imidazo[1,2-a]pyridin-2-yl]methyl]-4-oxo-pyrido[1,2-a]pyrimidine-2-carboxamide]
5020 nM | 20.3 nM | – | – | – | O=C(NCc1cn2cc(CNCC3CCCC3)ccc2n1)c1cc(=O)n2ccccc2n1 [Compound 210, N-[(6-{[(cyclopentyl-methyl)amino]methyl}imidazo [1,2-a]pyridin-2-yl)methyl]-4-oxo-4H-pyrido [1,2-a]pyrimidine-2-carboxamide]
≥ 30000 nM | – | – | 48.5 nM | – | O=C(NCc1cn2cc(CNCC34CC(C(F)(F)F)(C3)C4)ccc2n1)c1cc(=O)n2ccccc2n1 [Compound 87, 4-oxo-N-({6-[({[3-(trifluoromethyl)bicyclo[1.1.1]pentan-1-yl]methyl}amino)methyl]imidazo[1,2-a]pyridin-2-yl}methyl)-4H-pyrido [1,2-a]pyrimidine-2-carboxamide]
6580 nM | 10 nM | – | – | – | O=C(NCc1cn2cc(CNCC3(O)CCCCC3)ccc2n1)c1cc(=O)n2ccccc2n1 [Compound 209, N-{[6-({[(1-hydroxycyclohexyl)methyl]amino}methyl)imidazo [1,2-a]pyridin-2-yl]methyl}-4-oxo-4H-pyrido [1,2-a]pyrimidine-2-carboxamide]
12700 nM | 755 nM | – | – | – | O=C(NCc1cn2cc(CN[C@@H]3C[C@H]3C(F)(F)F)ccc2n1)c1cc(=O)n2ccccc2n1 [Compound 112, 4-oxo-N-{[6-({[(1R,2R)-2-(trifluoromethyl)cyclopropyl]amino}methyl)imidazo[1,2-a]pyridin-2-yl]methyl}-4H-pyrido[1,2-a] pyrimidine-2-carboxamide]
4500 nM | – | 13.1 nM | – | – | O=C(NCc1cn2cc(CNC3CC34CCC4)ccc2n1)c1cc(=O)n2ccccc2n1 (centres unmarked) [Compound 280, 4-oxo-N-[[6-[(spiro[2.3]hexan-2-ylamino)methyl]imidazo[1,2-a]pyridin-2-yl]methyl]pyrido[1,2-a]pyrimidine-2-carboxamide]
≥ 30000 nM | – | 69.5 nM | – | – | CC(C)(O)CNCc1ccc2nc(CNC(=O)c3cc(=O)n4ccccc4n3)cn2c1 [Compound 287, N-[[6-[[(2-hydroxy-2-methyl-propyl)amino]methyl]imidazo[1,2-a]pyridin-2-yl]methyl]-4-oxo-pyrido[1,2-a]pyrimidine-2-carboxamide]
8730 nM | 69.1 nM | – | – | – | O=C(NCc1cn2cc(CN3CCCCC3)ccc2n1)c1cc(=O)n2ccccc2n1 [Compound 104, 4-oxo-N-({6-[(piperidin-1-yl)methyl]imidazo[1,2-a]pyridin-2-yl}methyl)-4H-pyrido[1,2-a] pyrimidine-2-carboxamide]
6980 nM | – | 18 nM | – | – | CC1CC(CNCc2ccc3nc(CNC(=O)c4cc(=O)n5ccccc5n4)cn3c2)C1 (centres unmarked) [Compound 290, N-[[6-[[(3-methylcyclobutyl)methylamino]methyl]imidazo[1,2-a]pyridin-2-yl]methyl]-4-oxo-pyrido[1,2-a]pyrimidine-2-carboxamide]
– | 5090 nM | – | – | – | O=C(NCc1ccccc1)c1ccc2nc(CNC(=O)c3cc(=O)n4ccccc4n3)cn2c1 [Compound 68, N-benzyl-2-[({4-oxo-4H-pyrido[1,2-a]pyrimidin-2-yl}formamido)methyl]imidazo [1,2-a]pyridine-6-carboxamide]

Continued, compound first:

SMILES | IC50 (MOLM-13 cells) | IC50 (METTL3/14; [1]) | IC50 (METTL3/14; [2]) | IC50 (METTL3/14) | IC50 (METTL3/14; 5 nM METTL3/14, 0.2 μM RNA substrate, 0.5 μM SAM, lower limit of the assay IC50=5 nM, Compounds 1-62)
c1cc2nc(Cn3cc(-c4cc(N5CCOCC5)cc5[nH]ncc45)nn3)cn2cc1CNCC1CCC1 [Example 311, N-(cyclobutylmethyl)-1-[2-[[4-(6-morpholino-1H-indazol-4-yl)triazol-1-yl]methyl]imidazo[1,2-a]pyridin-6-yl]methanamine] | 3680 nM | – | 19 nM | – | –
OC1(CNCc2ccc3nc(Cn4cc(-c5ccc(F)c6[nH]ncc56)nn4)cn3c2)CCCCC1 [Example 306, 1-[[[2-[[4-(7-fluoro-1H-indazol-4-yl)triazol-1-yl]methyl]imidazo[1,2-a]pyridin-6-yl]methylamino]methyl]cyclohexanol] | 3930 nM | – | 9.46 nM | – | –
OC1(CNCc2ccc3nc(Cn4cc(-c5ccc(F)c6[nH]ncc56)nn4)cn3c2)CCC1 [Example 308, 1-[[[2-[[4-(7-fluoro-1H-indazol-4-yl)triazol-1-yl]methyl]imidazo[1,2-a]pyridin-6-yl]methylamino]methyl]cyclobutanol] | 5610 nM | – | 11.4 nM | – | –
O=C(c1cc(-c2cn(Cc3cn4cc(CNCC5CCC5)ccc4n3)nn2)c2cn[nH]c2c1)N1CCOCC1 [Example 300, [4-[1-[[6-[(cyclobutylmethylamino)methyl]imidazo[1,2-a]pyridin-2-yl]methyl]triazol-4-yl]-1H-indazol-6-yl]-morpholino-methanone] | ≥ 30000 nM | – | 511 nM | – | –
O=C(NCc1cn2cc(CNCC3CCCCC3)ccc2n1)c1cc(=O)n2ccccc2n1 [Compound 72, N-[(6-{[(cyclohexyl-methyl)amino]methyl}imidazo [1,2-a]pyridin-2-yl)methyl]-4-oxo-4H-pyrido [1,2-a]pyrimidine-2-carboxamide] | 8700 nM | – | – | – | –
O=C(NCc1cn2cc(CNCC3CCC3)ccc2n1)c1cccc2[nH]ncc12 [Example 322, N-[[6-[(cyclobutylmethylamino)methyl]imidazo[1,2-a]pyridin-2-yl]methyl]-1H-indazole-4-carboxamide] | 11000 nM | – | 32.5 nM | – | –
CN(C)C(=O)c1cc(-c2cn(Cc3cn4cc(CNCC5CCC5)ccc4n3)nn2)c2cn[nH]c2c1 [Example 299, 4-[1-[[6-[(cyclobutylmethylamino)methyl]imidazo[1,2-a]pyridin-2-yl]methyl]triazol-4-yl]-N,N-dimethyl-1H-indazole-6-carboxamide] | ≥ 30000 nM | – | 112 nM | – | –
CC1(C)CCN(Cc2ccc3nc(Cn4cc(-c5cccc6[nH]ncc56)nn4)cn3c2)CC1 [Example 251, 4-[1-({6-[(4,4-dimethylpiperidin-1-yl)methyl]imidazo[1,2-a]pyridin-2-yl}methyl)-1H-1,2,3-triazol-4-yl]-1H-indazole] | 727 nM | 5.76 nM | – | – | –
NC(=O)c1cc(-c2cn(Cc3cn4cc(CNCC5CCC5)ccc4n3)nn2)c2cn[nH]c2c1 [Example 298, 4-[1-[[6-[(cyclobutylmethylamino)methyl]imidazo[1,2-a]pyridin-2-yl]methyl]triazol-4-yl]-1H-indazole-6-carboxamide] | ≥ 30000 nM | – | 42.1 nM | – | –
Fc1cc(-c2cn(Cc3cn4cc(CNCC5CCCCC5)ccc4n3)nn2)c2cn[nH]c2c1 [Example 320, N-(cyclohexylmethyl)-1-[2-[[4-(6-fluoro-1H-indazol-4-yl)triazol-1-yl]methyl]imidazo[1,2-a]pyridin-6-yl]methanamine] | 2760 nM | – | 6.16 nM | – | –
NCc1ccc2nc(CNC(=O)c3cccc4[nH]ncc34)cn2c1 [Compound 39, N-{[6-(aminomethyl)imidazo[1,2-a]pyridin-2-yl]methyl}-1H-indazole-4-carboxamide] | – | – | – | – | 1470 nM
CC1(C)CCN(Cc2ccc3nc(Cn4cc(-c5cc(Br)cc6[nH]ncc56)nn4)cn3c2)CC1 [Example 227, 6-bromo-4-[1-({6-[(4,4-dimethylpiperidin-1-yl)methyl]imidazo[1,2-a]pyridin-2-yl}methyl)-1H-1,2,3-triazol-4-yl]-1H-indazole] | – | 7.9 nM | – | – | –
O=C(NCc1cn2ccc(CNCC3CCCCC3)cc2n1)c1cc(=O)n2ccccc2n1 [Compound 223, N-[(7-{[(cyclohexylmethyl)amino]methyl}imidazo[1,2-a]pyridin-2-yl)methyl]-4-oxo-4H-pyrido[1,2-a]pyrimidine-2-carboxamide] | – | 2170 nM | – | – | –
